In paper PMC8217170, “Phase Ib dose-escalation study of the hypoxia-modifier Myo-inositol trispyrophosphate in patients with hepatopancreatobiliary tumors” (Nature Communications, 2021):

Assay: Phase Ib dose escalation: safety and tolerability (CTCAE v4.03), MTD
Format: in vivo, human
Parameters: key to Hypercalcemia, CTCAE-Grade / Hypophosphatemia, CTCAE-Grade / Cholestasis, CTCAE-Grade / Nausea, CTCAE-Grade / Hypertension, CTCAE-Grade / Upper respiratory tract infection, CTCAE-Grade / Hyponatremia, CTCAE-Grade / Hypomagnesemia, CTCAE-Grade / Ascites & death due to rapid progression of malignancy, CTCAE-Grade / Hypokalemia, CTCAE-Grade / Pyrexia, CTCAE-Grade / Hyperphosphatemia, CTCAE-Grade / AV Block 1°, CTCAE-Grade / Palpations, CTCAE-Grade: 1 is the mildest form of the specific symptom; 5 is death
Settings: for Hypercalcemia, CTCAE-Grade: relationship to IMP: Definitively
Text: This first-in-patient investigator-initiated phase Ib dose-escalation study followed a 3 + 3 dose-escalation scheme with a planned maximal inclusion of 48 participants allocated to eight cohorts of increasing doses. Outcomes were safety, tolerability, pharmacokinetics, and preliminary efficacy of ITPP with participants in this exploratory, prospective, open-label and unblinded, unrandomized, single-center investigation being enrolled at the University Hospital Zurich (USZ), Switzerland. Written informed consent was obtained of all participants before study inclusion after a time of consideration of at least 24 h. Written consent included the reporting and publication of individual, anonymized patient data. The study adhered to the principles of the Declaration of Helsinki, current good clinical practice guidelines and all ethical regulations. The study protocol was approved by the responsible independent ethics committee of Zurich (KEK-ZH-Nr. 2014-0374) and the national regulatory authority Swissmedic (2015DR1009) and is provided in the Supplementary Note 1. The study setup was published before inclusion start[55] and the trial first registered at ClinicalTrials.gov (NCT02528526) on 11/11/2014. After 6 sequential reviews requiring minor editorial changes, final registration at ClinicalTrials.gov was obtained on the 08/18/2015. The first patient was included in the study 04/13/2015, with treatment started on the 04/27/2015. 4 patients were included in the trial before final registration at ClinicalTrials.gov (04/13/2015–07/20/2015). The last patient was included on the 06/12/2018, treatment started on the 06/18/2018 and the last treatment administered on 07/06/2018. Data cut-off for the study was the 12/31/2018. The manuscript was written in compliance with ICMJE guidelines.
Primary objectives were (i) assessment of the safety and tolerability of increasing doses of ITPP, and (ii) establishment of the MTD (primary endpoint) according to the dose escalation schema. The primary outcome was measured by collection of adverse effects information according to Common Terminology Criteria for Adverse Events (CTCAE, US National Cancer Institute, version 4.03). Safety objectives and outcomes were identical with the primary endpoint.
The study drug (brand name: OXY111A) was intravenously administered in 9 infusions, each lasting 8 h, over 3 weeks in an outpatient setting at the Phase 1 unit of the USZ Clinical Trials Center. Due to its anionic properties, ITPP acts a potent chelator of calcium. Therefore, administration with CaCl2 (Baxter) at a 1:0.75 molar ratio has been determined to prevent hypocalcaemia. Respective doses were calculated based on body surface area (DuBois/DuBois formula). Cohort 1 started at weekly doses of 5600 mg/m^2 weekly, equal to the maximal weekly dose tested in healthy volunteers (unpublished data from Normoxys®). Dose escalation was performed according to the predefined scheme (Fig. 1a, Supplementary Note 1: page 6) up to a maximum weekly dose of 43,700 mg/m^2. During infusion days, participants had continuous monitoring of vital signs and daily 12-electrode electrocardiograms. Electrolytes measurements and venous blood gas analyses were performed three-hourly, while complete blood count, coagulation and routine kidney/liver parameters were assessed twice daily.
Severity of encountered AE was assessed following the CTCAE guidelines. Serious AE were defined as events being life-threatening, necessitating hospitalization, resulting in death or birth defects. DLT was defined as any AE ≥ grade 3 and sTET as any grade 2 AE considered to be definitely, probably or possibly related to ITPP. […] MTD was defined as the dose preceding the level at which 1 patient experienced a DLT or ≥3 patients experienced a sTET (Supplementary Note 1: page 6). The window for DLT/sTET/MTD assessment was from first dose of ITPP until first dose of chemotherapy or 10d following the last ITPP infusion. […]

[1] = cohort 1, SAE, relationship to IMP: Unrelated

O=P1(O)OC2C3OP(=O)(O)OP(=O)(O)OC3C3OP(=O)(O)OP(=O)(O)OC3C2OP(=O)(O)O1 (centres unmarked) [ITPP, Myo-inositol trispyrophosphate]
Total: 2 (7.1%): Hypokalemia (AE, not ITPP-related) (all cohorts, n = 28, total (%)) | Pyrexia (AE, not ITPP-related) (all cohorts, n = 28, total (%))
Total: 1 (3.6%): AV Block 1° (AE, not ITPP-related) (all cohorts, n = 28, total (%)) | Acute kidney injury grade 3 (AE, not ITPP-related) (all cohorts, n = 28, total (%)) | C. difficile enteritis (AE, not ITPP-related) (all cohorts, n = 28, total (%)) | Cholestasis (AE, not ITPP-related) (all cohorts, n = 28, total (%)) | Fatigue (AE, not ITPP-related) (all cohorts, n = 28, total (%)) | Hyperphosphatemia (TET) (all cohorts, n = 28, total (%)) | Icterus due to malignant obstruction (AE, not ITPP-related) (all cohorts, n = 28, total (%)) | Lower gastrointestinal bleeding (AE, not ITPP-related) (all cohorts, n = 28, total (%)) | Nausea & vomiting due to malignant infiltration of stomach (AE, not ITPP-related) (all cohorts, n = 28, total (%)) | Nausea (AE, not ITPP-related) (all cohorts, n = 28, total (%)) | Neutropenia (AE, not ITPP-related) (all cohorts, n = 28, total (%)) | Palpitations (AE, not ITPP-related) (all cohorts, n = 28, total (%))
1: Pyrexia, CTCAE-Grade (cohort 1, AE, relationship to IMP: Unrelated) | Hypercalcemia, CTCAE-Grade (cohort 2, AE) | Hypomagnesemia, CTCAE-Grade (cohort 2, AE, relationship to IMP: Probably) | Hypercalcemia, CTCAE-Grade (cohort 3, AE) | Hypophosphatemia, CTCAE-Grade (cohort 3, AE, relationship to IMP: Probably) | Palpations, CTCAE-Grade (cohort 3, AE, relationship to IMP: Unrelated) | Cholestasis, CTCAE-Grade (cohort 3, SAE, relationship to IMP: Unlikely)
Total: 3(10.7%): Hypertension (TET) (all cohorts, n = 28, total (%))
4/28: Hypophosphatemia, patients (all CTCAE grade I)
5: Ascites & death due to rapid progression of malignancy, CTCAE-Grade [1]
7: Number of serious adverse events (SAE) (all cohorts)
19 (67.9%): Hypercalcemia (TET) (all cohorts, n = 28, total (%))
Total: 3 (10.7%): Ascites due to oncological progress (AE, not ITPP-related) (all cohorts, n = 28, total (%)) | Hyponatremia (AE, not ITPP-related) (all cohorts, n = 28, total (%)) | Upper respiratory tract infection (AE, not ITPP-related) (all cohorts, n = 28, total (%))
24: Number of AE unlikely to be ITPP-induced (all cohorts)
0: AV Block 1° (AE, not ITPP-related) (cohort 1, 1866 mg/m^2) | Acute kidney injury grade 3 (AE, not ITPP-related) (cohort 1, 1866 mg/m^2) | C. difficile enteritis (AE, not ITPP-related) (cohort 1, 1866 mg/m^2) | Cholestasis (AE, not ITPP-related) (cohort 1, 1866 mg/m^2) | Fatigue (AE, not ITPP-related) (cohort 1, 1866 mg/m^2) | Hypercalcemia (TET) (cohort 1, 1866 mg/m^2) | Hyperphosphatemia (TET) (cohort 1, 1866 mg/m^2) | Hypertension (TET) (cohort 1, 1866 mg/m^2) | Hypokalemia (AE, not ITPP-related) (cohort 1, 1866 mg/m^2) | Hypomagnesemia (TET) (cohort 1, 1866 mg/m^2) | Hyponatremia (AE, not ITPP-related) (cohort 1, 1866 mg/m^2) | Hypophosphatemia (TET) (cohort 1, 1866 mg/m^2) | Icterus due to malignant obstruction (AE, not ITPP-related) (cohort 1, 1866 mg/m^2) | Nausea & vomiting due to malignant infiltration of stomach (AE, not ITPP-related) (cohort 1, 1866 mg/m^2) | Nausea (AE, not ITPP-related) (cohort 1, 1866 mg/m^2) | Neutropenia (AE, not ITPP-related) (cohort 1, 1866 mg/m^2) | Palpitations (AE, not ITPP-related) (cohort 1, 1866 mg/m^2) | Upper respiratory tract infection (AE, not ITPP-related) (cohort 1, 1866 mg/m^2) | AV Block 1° (AE, not ITPP-related) (cohort 2, 3732 mg/m^2) | Acute kidney injury grade 3 (AE, not ITPP-related) (cohort 2, 3732 mg/m^2) | Ascites due to oncological progress (AE, not ITPP-related) (cohort 2, 3732 mg/m^2) | C. difficile enteritis (AE, not ITPP-related) (cohort 2, 3732 mg/m^2) | Cholestasis (AE, not ITPP-related) (cohort 2, 3732 mg/m^2) | Fatigue (AE, not ITPP-related) (cohort 2, 3732 mg/m^2) | Hyperphosphatemia (TET) (cohort 2, 3732 mg/m^2) | Hypertension (TET) (cohort 2, 3732 mg/m^2) | Hypokalemia (AE, not ITPP-related) (cohort 2, 3732 mg/m^2) | Hyponatremia (AE, not ITPP-related) (cohort 2, 3732 mg/m^2) | Hypophosphatemia (TET) (cohort 2, 3732 mg/m^2) | Icterus due to malignant obstruction (AE, not ITPP-related) (cohort 2, 3732 mg/m^2) | Lower gastrointestinal bleeding (AE, not ITPP-related) (cohort 2, 3732 mg/m^2) | Nausea (AE, not ITPP-related) (cohort 2, 3732 mg/m^2) | Neutropenia (AE, not ITPP-related) (cohort 2, 3732 mg/m^2) | Palpitations (AE, not ITPP-related) (cohort 2, 3732 mg/m^2) | Pyrexia (AE, not ITPP-related) (cohort 2, 3732 mg/m^2) | Upper respiratory tract infection (AE, not ITPP-related) (cohort 2, 3732 mg/m^2) | AV Block 1° (AE, not ITPP-related) (cohort 3, 5600 mg/m^2) | Acute kidney injury grade 3 (AE, not ITPP-related) (cohort 3, 5600 mg/m^2) | Ascites due to oncological progress (AE, not ITPP-related) (cohort 3, 5600 mg/m^2) | Fatigue (AE, not ITPP-related) (cohort 3, 5600 mg/m^2) | Hyperphosphatemia (TET) (cohort 3, 5600 mg/m^2) | Hypertension (TET) (cohort 3, 5600 mg/m^2) | Hypokalemia (AE, not ITPP-related) (cohort 3, 5600 mg/m^2) | Hypomagnesemia (TET) (cohort 3, 5600 mg/m^2) | Hyponatremia (AE, not ITPP-related) (cohort 3, 5600 mg/m^2) | Icterus due to malignant obstruction (AE, not ITPP-related) (cohort 3, 5600 mg/m^2) | Lower gastrointestinal bleeding (AE, not ITPP-related) (cohort 3, 5600 mg/m^2) | Nausea & vomiting due to malignant infiltration of stomach (AE, not ITPP-related) (cohort 3, 5600 mg/m^2) | Nausea (AE, not ITPP-related) (cohort 3, 5600 mg/m^2) | Neutropenia (AE, not ITPP-related) (cohort 3, 5600 mg/m^2) | Pyrexia (AE, not ITPP-related) (cohort 3, 5600 mg/m^2) | Upper respiratory tract infection (AE, not ITPP-related) (cohort 3, 5600 mg/m^2) | AV Block 1° (AE, not ITPP-related) (cohort 4, 7000 mg/m^2) | C. difficile enteritis (AE, not ITPP-related) (cohort 4, 7000 mg/m^2) | Cholestasis (AE, not ITPP-related) (cohort 4, 7000 mg/m^2) | Hyperphosphatemia (TET) (cohort 4, 7000 mg/m^2) | Hypokalemia (AE, not ITPP-related) (cohort 4, 7000 mg/m^2) | Hypomagnesemia (TET) (cohort 4, 7000 mg/m^2) | Hyponatremia (AE, not ITPP-related) (cohort 4, 7000 mg/m^2)
Total: 4 (14.3%): Hypophosphatemia (TET) (all cohorts, n = 28, total (%))
28.1%: Hypomagnesemia/-phosphatemia, share of ITPP-related AE (all cohorts)
One: Hyperphosphatemia, patients (asymptomatic, grade I)
Total: 5 (17.9%): Hypomagnesemia (TET) (all cohorts, n = 28, total (%))
57%: Share of AE at least possibly related to ITPP (all cohorts)
5/28: Hypomagnesemia, patients (all CTCAE grade I)
32: Number of treatment-related toxicities (TET, at least possibly related to ITPP) (28 patients, all cohorts)
3: C. difficile enteritis, CTCAE-Grade (cohort 3, SAE, relationship to IMP: Unrelated)
2: Lower gastrointestinal bleeding, CTCAE-Grade [1] | Nausea & Vomiting necessitating hospitalisation, CTCAE-Grade (cohort 2, SAE, relationship to IMP: Unrelated)
59.4%: Hypercalcemia, share of ITPP-related AE (all cohorts)
67.9 % of patients: Hypercalcemia of free ionized calcium, share of patients (all cohorts)
